From US11806344B2, “Pharmaceutical composition comprising mineralocorticoid receptor antagonist and use thereof” (priority 2016, dated 2023)
Where two headings read alike, the source gives them in different places.

How the values were obtained:
[1] = Absorption of Compound I D90 5 μm suspension in Beagle dogs (Example 3-2); assay type: in vivo; conditions: intragastric single dose 0.5 mg/kg, suspension in 0.5% MC
Method: Sample to test: Compound I having D90 of 5 μm was suspended in 0.5% MC immediately before tests, to prepare 0.25 mg/mL suspension.
Animals: Three Beagle Dogs.
(1) All animals fasted for 12 h or longer before drug administration, and food was supplied 4 h after drug administration, with ad libitum access to water all the time. […] The collected blood was stored in a dry tube with heparin (normal saline containing 0.1% heparin sodium). (2) Plasma preparation: The whole blood samples collected in step (1) were subject to centrifugation at a low speed (8000 r/min, 6 min, 4° C.) to separate the plasma (the whole blood was stored in a mobile freezer at about 0 to 4° C., and plasma had to be separated within 30 minutes after the blood collection), and the plasma was kept in dark in a freezer at −70° C. (or lower) for future analysis.

[2] = Absorption of Compound I of different particle sizes/formulations in male SD rats (Example 3-1); assay type: in vivo; conditions: intragastric single dose 1.0 mg/kg; for AUCINF: 1 mg/kg; for BA %: absolute bioavailability vs IV 2.0 mg/kg
Method: Compound I with different formulations and/or different D90 values was compared for absorptions in male SD rats.
Samples to test: Compound I was prepared by the method as described in Example 1 of WO2014094664A1, and then pulverized to provide Compound I samples having D90 of 538 nm, 3.8 μm, 21.7 μm, 41.5 μm and 71.6 μm, respectively; immediately before the tests, these samples were suspended in 0.5% MC to obtain 1 mg/mL suspensions.
Solutions: 5% DMSO+95% (solution containing 6% HP-β-CD)
Solid dispersions: Compound I: Polyvinylpyrrolidone K30=1:8 (w/w)
The formulation for intravenous injection was a solution where Compound I was dissolved in 5% DMSO+95% (6% HP-β-CD solution), and SD rats were administered at a dose of 2 mg/kg.

[3] = tested on: patients with diabetic nephrophthy; conditions: cited from earlier work
[4] = rat, in vivo, po, 1 mg/kg
Method: Blood collection: The animals were fixed and had their tails warmed in a water bath 10 min prior to blood collection; about 100 μL of blood was collected through the tail vein for each animal and put into an anticoagulation tube containing hepatin; the blood samples were subject to centrifugation at 8000 rpm for 6 min at 4° C. to obtain plasma samples, which had to be obtained within 30 minutes after blood was collected; the plasma samples were stored in a freezer at −80° C. for future tests.
Sample analysis: 50 μL of each plasma sample from the freezer was transferred to a centrifugal tube; 100 μL of water and 400 μL of MTBE standard solution (50 ng/mL) were added into the tube and well mixed with the plasma; the obtained mixture was mixed for 10 minutes using a vortex mixer and then subject to centrifugation for 5 minutes (12000 r/min); 300 μL of the supernatant was transferred to another centrifugal tube and blown dry with nitrogen gas; the resultant substance was dissolved in 200 μL of a solution consisting of methanol and water at a ratio of 1:1, of which 20 μL was used for the LC-MS/MS measurement.
Data processing: the compound concentration was output by Analyst 1.6.1 (AB Sciex); the means, standard deviations, and variation coefficients were calculated using Microsoft Excel (no calculation needed if these parameters were directed output by Analyst 1.6.1), and pharmacokinetic parameters were determined using the NCA analysis object in Pharsight Phoenix 6.3.

Row | Compound | AUCINF [2] [ng·h/mL] | BA % [2] [%] | AUCINF [4] [ng·h/mL] | also measured
1 | N#Cc1ccc(N2N=C3c4ccc(C(=O)N5CCC(O)CC5)nc4CC[C@@H]3[C@@H]2C2CCCC2)cc1Cl [Compound I having D90 of 5 μm] |  |  |  | AUC(0-inf) ([1]; dog, plasma, po): 506 ng·h/mL; BA % [1]: 57.4%
2 | N#Cc1ccc(N2N=C3c4ccc(C(=O)N5CCC(O)CC5)nc4CC[C@@H]3[C@@H]2C2CCCC2)cc1Cl [Compound I with D90 of 3.8 μm] | 1045 | 66.9 |  | 
3 | N#Cc1ccc(N2N=C3c4ccc(C(=O)N5CCC(O)CC5)nc4CC[C@@H]3[C@@H]2C2CCCC2)cc1Cl [Compound I with D90 of 21.7 μm] | 854 | 54.6 |  | 
4 | N#Cc1ccc(N2N=C3c4ccc(C(=O)N5CCC(O)CC5)nc4CC[C@@H]3[C@@H]2C2CCCC2)cc1Cl [Compound I with D90 of 41.5 μm] | 545 | 34.8 |  | 
5 | N#Cc1ccc(N2N=C3c4ccc(C(=O)N5CCC(O)CC5)nc4CC[C@@H]3[C@@H]2C2CCCC2)cc1Cl [Compound I with D90 of 72.0 μm] | 207 | 13.2 |  | BA % ([2]; listed as Compound I with D90 of 72.2 μm): 13.2%
6 | N#Cc1ccc(N2N=C3c4ccc(C(=O)N5CCC(O)CC5)nc4CC[C@@H]3[C@@H]2C2CCCC2)cc1Cl [Compound I with D90 of 538 nm] | 1287 | 82.3 |  | 
7 | CCOc1ncc(C)c2c1[C@H](c1ccc(C#N)cc1OC)C(C(N)=O)=C(C)N2 [Finerenone] |  |  |  | UACR reduced ([3]; Finerenone 7.5 mg/day): 21%; incidence of discontinuation due to onset of hyperkalemia ([3]; Finerenone 7.5 mg/day): 2.1%; UACR reduced ([3]; Finerenone 10 mg/day): 24%; incidence of discontinuation due to onset of hyperkalemia ([3]; Finerenone 10 mg/day): 0%; UACR reduced ([3]; Finerenone 15 mg/day): 33%; incidence of discontinuation due to onset of hyperkalemia ([3]; Finerenone 15 mg/day): 3.2%; UACR reduced ([3]; Finerenone 20 mg/day): 38%; incidence of discontinuation due to onset of hyperkalemia ([3]; Finerenone 20 mg/day): 1.7%
8 | Carbomer |  |  | 289 | 
9 | Hydroxypropyl cellulose |  |  | 535 | 
10 | Hydroxypropyl methyl cellulose |  |  | 483 | 
11 | Poloxamer 188 |  |  | 712 | 
12 | Polyethylene glycol 400 |  |  | 613 | 
13 | Polyoxyl(40) stearate |  |  | 427 | 
14 | Polysorbate 80 |  |  | 654 | 
15 | Polyvinyl alcohol |  |  | 603 | 
16 | hydroxypropyl-β-cyclodextrin |  |  | 350 | 
